Test results as given in patent US20220267231A1, “FERTILIZER CONTAINING A SEED GRIND AND A METHOD OF USING THE FERTILIZER TO ENHANCE PLANT GROWTH” (Innovations for World Nutrition, LLC, priority 2020, published 2022).

Experiments:
Assay type in all cases: in vivo
[1] = test system: corn; assay: Early growth of corn in transparent cups, dry weight of seedlings; details: for Dry Weight of Roots / Total Dry Weight of Plant + Roots / % Difference from Baseline for Plant + Roots / % Difference from Baseline for Roots Only: corn; for Dry Weight of Roots / Total Dry Weight of Plant + Roots: 24 days after planting, .P buried at planting, .L buried 11 days after planting; for % Difference from Baseline for Plant + Roots / % Difference from Baseline for Roots Only: 24 days, compared to the baseline with the highest total weight
Method: Each cup was given 0.2 g urea in 25 mL of solution. Two corn seeds were planted in each cup 1 inch deep and 3 inches apart. The cups holding the soil were transparent plastic and were placed inside opaque cups. The seeds were planted in the soil against the inside surface of the transparent cups and the outer opaque cups protected the roots from light during growth. By removing the inner cups, the roots were viewed and pictures taken without disturbing the plants as they were developing and therefore a view of the early growth of the roots was possible. […] After planting the seeds, the mixtures in Table 12 were buried 1.27 cm (½ inch) deep in the center of each cup. Some of these were buried on the same day as the seed was planted (noted as .P in Table 13), and others were buried 11 days after the seed was planted (noted as .L in Table 13). […] If two seeds sprouted in a cup, the second was immediately removed. One cup for each formulation was tested. The baseline was tested in duplicate. Twenty-four days after planting the corn, the plants with roots were gently removed from the cups, rinsed, dried, and weighed. The % differences shown in Table 13 are compared to the baseline with the highest weight of total weight for the plant and roots.

[2] = test system: cotton; assay: Early growth of cotton in transparent cups, dry weight of plants and roots; details: cotton cup test
Method: Each cup was given 0.2 g urea in 25 mL of solution. […] The cups holding the soil were transparent plastic and were placed inside opaque cups. The seeds were planted in the soil against the inside surface of the transparent cups and the outer opaque cups protected the roots from light during growth. By removing the inner cups, the roots were viewed and pictures taken without disturbing the plants as they were developing and therefore a view of the early growth of the roots was possible. […] If two seeds sprouted in a cup, the second was immediately removed.

[3] = test system: wheat; assay: Early growth of wheat in transparent cups, dry weight of seedlings; details: for Dry Weight of Roots Only / Dry Weight of Total Plant + Roots: 28 days after planting, .P buried at planting, .L buried 11 days after planting; for % Difference for Plant + Roots / % Difference for Roots Only: 28 days, compared to the baseline with the highest total weight
Method: Each cup was given 0.2 g urea in 25 mL of solution. Four wheat seeds were planted in each cup 1 inch deep and 3 inches apart. The cups holding the soil were transparent plastic and were placed inside opaque cups. The seeds were planted in the soil against the inside surface of the transparent cups and the outer opaque cups protected the roots from light during growth. By removing the inner cups, the roots were viewed and pictures taken without disturbing the plants as they were developing and therefore a view of the early growth of the roots was possible. […] After planting the seeds, the mixtures in Table 12 were buried 1.27 cm (½ inch) deep in the center of each cup. Some of these were buried on the same day as the seeds were planted (noted as .P in Table 14), and others were buried 11 days after the seed was planted (noted as .L in Table 14). If more than two seeds sprouted in a cup, the seedlings were removed to allow only two to remain. One of each formulation was tested. The baseline was tested in duplicate. Twenty-eight days after planting the wheat, the plants with roots were gently removed from the cups, rinsed, dried, and weighed.

O=C([O-])O.[K+] [KBC, potassium bicarbonate]
Benefit to early growth of corn (in words) ([1]; corn cup test): did not provide a benefit | Early growth of cotton plants and roots (in words) [2]: produced more benefit with early growth of cotton than sodium bicarbonate

O=C([O-])O.[K+] [A.P, potassium bicarbonate]
Dry Weight of Roots Only [3]: 0.0669 g | Dry Weight of Total Plant + Roots [3]: 0.2337 g | Dry Weight of Roots Only ([3]; listed as A.L): 0.1166 g | Dry Weight of Total Plant + Roots ([3]; listed as A.L): 0.2670 g | % Difference for Plant + Roots [3]: −8% | % Difference for Roots Only [3]: −46% | % Difference for Plant + Roots ([3]; listed as A.L): 5% | % Difference for Roots Only ([3]; listed as A.L): −6% | Dry Weight of Roots [1]: 0.2313 g | Total Dry Weight of Plant + Roots [1]: 0.5292 g | Dry Weight of Roots ([1]; listed as A.L): 0.4121 g | Total Dry Weight of Plant + Roots ([1]; listed as A.L): 0.7818 g | % Difference from Baseline for Plant + Roots [1]: −20% | % Difference from Baseline for Roots Only [1]: −29% | % Difference from Baseline for Plant + Roots ([1]; listed as A.L): 18% | % Difference from Baseline for Roots Only ([1]; listed as A.L): 26%

O=C([O-])O.[K+] [H.P, potassium bicarbonate]
Dry Weight of Roots Only [3]: 0.1334 g | Dry Weight of Total Plant + Roots [3]: 0.3030 g | Dry Weight of Roots Only ([3]; listed as H.L): 0.1286 g | Dry Weight of Total Plant + Roots ([3]; listed as H.L): 0.2881 g | % Difference for Plant + Roots [3]: 19% | % Difference for Roots Only [3]: 7% | % Difference for Plant + Roots ([3]; listed as H.L): 13% | % Difference for Roots Only ([3]; listed as H.L): 3% | Dry Weight of Roots [1]: 0.2744 g | Total Dry Weight of Plant + Roots [1]: 0.5252 g | Dry Weight of Roots ([1]; listed as H.L): 0.2538 g | Total Dry Weight of Plant + Roots ([1]; listed as H.L): 0.5597 g | % Difference from Baseline for Plant + Roots [1]: −20% | % Difference from Baseline for Roots Only [1]: −16% | % Difference from Baseline for Plant + Roots ([1]; listed as H.L): −15% | % Difference from Baseline for Roots Only ([1]; listed as H.L): −22%
